Results from patent US8663690B2, “Method for nanoencapsulation” (William Marsh Rice University, priority 2006, dated 2014).

Assay: UV-vis spectroscopy estimate of lutein-ester dissolved in ethanol
Assay type: physicochemical
Settings: ethanol at 60° C., estimated from UV-vis spectroscopy; rest undissolved particles
Method: A suspension of lutein-ester (Blue California, Co.) was prepared by dissolving lutein-ester powder in ethanol at 60° C. under stirring. It is estimated from UV-vis spectroscopy that 20.0 wt % lutein-ester dissolves in ethanol at 60° C., and the rest are in the form of undissolved nanoparticles, mesoparticles, and microparticles. A solution of gum arabic (Sigma) was prepared by dissolving gum arabic in deionized water (18.2 Mega-Ohm·cm) at 60° C. under stirring until the gum arabic was completely dissolved and a clear solution was obtained.

fraction of lutein-ester that dissolves in ethanol: 20.0 wt %
Substance: lutein-ester
